Reference: patent publication US4656128A, “Modified alkaline phosphatase” (Research Corporation, priority 1985, dated 1987)

Legend:
[1] = target: T1, E. coli alkaline phosphatase, native (strain CW3747) (Escherichia coli, UniProt P00634); experiment: Kinetic constants, hydrolysis of PNPP to p-nitrophenol; format: biochemical; conditions: native enzyme, 1M Tris HCl
T1 construct: The monomer is an unglycosylated single chain of 449 amino acids in its mature form; made in house; host or cells: E. coli strain CW3747 (ATCC 27256), enzyme isolated by the method of Applebury et al. 1970
T1 sequence (P00634 23-471): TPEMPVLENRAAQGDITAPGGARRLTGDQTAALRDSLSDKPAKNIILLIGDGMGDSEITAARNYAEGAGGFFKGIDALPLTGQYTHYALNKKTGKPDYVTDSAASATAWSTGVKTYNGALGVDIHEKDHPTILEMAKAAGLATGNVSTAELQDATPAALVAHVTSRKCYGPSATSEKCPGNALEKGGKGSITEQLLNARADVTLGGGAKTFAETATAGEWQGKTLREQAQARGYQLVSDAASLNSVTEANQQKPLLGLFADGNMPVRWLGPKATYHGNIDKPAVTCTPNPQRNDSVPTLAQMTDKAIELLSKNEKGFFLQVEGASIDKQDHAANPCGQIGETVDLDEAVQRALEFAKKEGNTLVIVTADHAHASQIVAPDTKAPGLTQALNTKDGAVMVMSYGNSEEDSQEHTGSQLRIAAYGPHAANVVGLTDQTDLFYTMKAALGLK
Method: B, Native alkaline phosphatase, [K2 HPO4 ]-0 (0), 1×10^-5 M ( ), 3×10^-5 M (Δ). The enzyme was assayed as described under "Materials and Methods" in Example I except that the assay solution contained K2 HPO4 at the indicated concentration and PNPP at concentrations ranging from 5×10^-6 to 1×10^-3 M.
Enzyme and Chemicals - Alkaline phosphatase was isolated from E. coli strain CW3747 (A.T.C.C. 27256) according to the method described by Applebury et al. (Applebury, M. L. et al. J. Biol. Chem. 245: 4968 (1970)). Enzyme concentrations were determined spectrophotometrically at 278 nm using E1 cm^0.1% =0.72. Molar calculations were based on Mr =94,000. The enzyme activity was assayed as the rate of hydrolysis of PNPP^1 to p-nitrophenol. The reaction was monitored by following the increase in absorbance at 410 nm (Δε=1.62×10^4M^-1 cm^-1) in a solution of 1×10^-3 M PNPP, 1M Tris HCl, 10 mM MgCl2, 5×10^-5 M ZnCl2, pH 8.0, 20° C.

[2] = target: T2, E. coli alkaline phosphatase, trypsin-modified (tm-AP; NH2-terminal 10 or 11 amino acids removed, cleaved at Arg-10 Ala-11) (Escherichia coli, UniProt P00634); experiment: as above; format: biochemical; conditions: trypsin-modified enzyme, 1M Tris HCl
T2 construct: trypsin cleaves the Arg-10 Ala-11 bond leaving Ala as the NH2 -terminal residue; made in house; host or cells: E. coli strain CW3747 enzyme treated with trypsin, purified by chromatofocusing
T2 sequence (P00634 33-471): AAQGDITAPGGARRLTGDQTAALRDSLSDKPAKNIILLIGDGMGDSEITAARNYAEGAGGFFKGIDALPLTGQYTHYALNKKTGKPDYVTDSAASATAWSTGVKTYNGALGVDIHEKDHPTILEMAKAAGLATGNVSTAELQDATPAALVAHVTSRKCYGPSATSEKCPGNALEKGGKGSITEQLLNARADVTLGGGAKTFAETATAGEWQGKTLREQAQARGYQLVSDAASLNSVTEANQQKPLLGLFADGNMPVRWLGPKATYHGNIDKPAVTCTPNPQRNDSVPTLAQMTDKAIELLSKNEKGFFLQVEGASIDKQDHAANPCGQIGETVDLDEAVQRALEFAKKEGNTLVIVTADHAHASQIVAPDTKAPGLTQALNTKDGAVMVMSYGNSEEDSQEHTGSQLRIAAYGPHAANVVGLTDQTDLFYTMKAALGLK
Method: The enzyme was assayed as described under "Materials and Methods" in Example I except that the assay solution contained K2 HPO4 at the indicated concentration and PNPP at concentrations ranging from 5×10^-6 to 1×10^-3 M.
Enzyme and Chemicals - Alkaline phosphatase was isolated from E. coli strain CW3747 (A.T.C.C. 27256) according to the method described by Applebury et al. (Applebury, M. L. et al. J. Biol. Chem. 245: 4968 (1970)). Enzyme concentrations were determined spectrophotometrically at 278 nm using E1 cm^0.1% =0.72. Molar calculations were based on Mr =94,000. The enzyme activity was assayed as the rate of hydrolysis of PNPP^1 to p-nitrophenol. The reaction was monitored by following the increase in absorbance at 410 nm (Δε=1.62×10^4M^-1 cm^-1) in a solution of 1×10^-3 M PNPP, 1M Tris HCl, 10 mM MgCl2, 5×10^-5 M ZnCl2, pH 8.0, 20° C. […] Trypsin, PNPP, and carboxypeptidase Y were obtained from Sigma. […] All other chemicals employed were reagent grade.
To prepare trypsin-modified alkaline phosphatase, native alkaline phosphatase (3 mg/ml) was treated with 10% (w/w) trypsin for 60 min at 20° C. and the major protein peak was isolated using the above chromatofocusing procedure.

[3] = 10 mM MgCl2, 5×10^-5 M ZnCl2, pH 8.0, 20° C, PNPP 5×10^-6 to 1×10^-3 M

For O=[N+]([O-])c1ccc(OP(=O)(O)O)cc1 [PNPP, p-nitrophenolphosphate], the Km [1, 3] was 40 µM, the “Vmax (PNPP)” value ([1]; pH 8.0, 20° C) was 2500 µmol/h/mg and the Km [2, 3] was 19 µM. The “Vmax (PNPP)” value ([2]; pH 8.0, 20° C) was 2000 µmol/h/mg.
